The source of these data is patent US20250270172A1, “Pyrimidine Derivatives As Modulators of the 5-HT2A Serotonin Receptor Useful For The Treatment of Disorders Related Thereto” (Arena Pharmaceuticals, Inc., priority 2020, published 2025).

In the test the target is 5-HT2A (Homo sapiens (Human), UniProt P28223). As to the kind of experiment: Radioligand binding assay, [^3H]5-HT competition, 5-HT2A. The note with it: [^3H]5-HT radioligand, membranes of HEK293 cells expressing recombinant 5-HT2A; Ki from IC50 by Cheng-Prusoff; read-out: 5-HT2A serotonin binding Ki value.
Sequence of 5-HT2A (P28223 whole entry): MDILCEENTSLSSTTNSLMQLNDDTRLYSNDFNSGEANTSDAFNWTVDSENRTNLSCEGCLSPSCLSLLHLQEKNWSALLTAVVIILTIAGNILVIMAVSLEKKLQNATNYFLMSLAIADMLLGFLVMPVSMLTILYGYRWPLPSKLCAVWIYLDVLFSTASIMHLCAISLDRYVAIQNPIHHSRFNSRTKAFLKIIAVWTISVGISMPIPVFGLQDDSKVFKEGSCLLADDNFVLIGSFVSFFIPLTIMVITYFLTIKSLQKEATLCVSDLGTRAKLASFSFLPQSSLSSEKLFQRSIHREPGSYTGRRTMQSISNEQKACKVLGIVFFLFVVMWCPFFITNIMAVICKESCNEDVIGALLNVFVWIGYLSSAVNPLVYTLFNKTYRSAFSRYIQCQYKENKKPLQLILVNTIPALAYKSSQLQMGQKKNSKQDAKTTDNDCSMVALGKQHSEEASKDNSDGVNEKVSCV
As to `Cc1ncnc(C)c1-c1cc(NC(=O)Cc2ccc(F)cc2)ccc1OCCN1CCCC1` [Compound 254, N-(3-(4,6-dimethylpyrimidin-5-yl)-4-(2-(pyrrolidin-1-yl)ethoxy)phenyl)-2-(4-fluorophenyl)acetamide], the inhibitory constant (Ki) (as a rule, a measure of affinity in units of concentration, obtained from inhibition or displacement) amounted to 1.3 nM. As for `Cc1ncnc(C)c1-c1cc(NC(=O)CCc2ccccc2)ccc1OCCN1CCCC1` [Compound 255, N-(3-(4,6-dimethylpyrimidin-5-yl)-4-(2-(pyrrolidin-1-yl)ethoxy)phenyl)-3-phenylpropanamide], the figure is 1.72 nM; as for `Cc1ncnc(C)c1-c1cc(NC(=O)CCc2cocn2)ccc1OCCN1CCCC1` [Compound 258, N-[3-(4,6-dimethylpyrimidin-5-yl)-4-(2-pyrrolidin-1-ylethoxy)phenyl]-3-oxazol-4-yl-propanamide], 10.8 nM; as for `Cc1nc(CCC(=O)Nc2ccc(OCCN3CCCC3)c(-c3c(C)ncnc3C)c2)co1` [Compound 259, N-[3-(4,6-dimethylpyrimidin-5-yl)-4-(2-pyrrolidin-1-ylethoxy)phenyl]-3-(2-methyloxazol-4-yl)propanamide], 19.6 nM.

As to `Cc1ncnc(C)c1-c1cc(NC(=O)Cc2cnco2)ccc1OCCN1CCCC1` [Compound 260, N-[3-(4,6-dimethylpyrimidin-5-yl)-4-(2-pyrrolidin-1-ylethoxy)phenyl]-2-oxazol-5-yl-acetamide], the inhibition constant Ki was 63.3 nM. The figure for `Cc1nc(CC(=O)Nc2ccc(OCCN3CCCC3)c(-c3c(C)ncnc3C)c2)no1` [Compound 261, N-(3-(4,6-dimethylpyrimidin-5-yl)-4-(2-(pyrrolidin-1-yl)ethoxy)phenyl)-2-(5-methyl-1,2,4-oxadiazol-3-yl)acetamide] is 91.7 nM; for `Cc1ncnc(C)c1-c1cc(NC(=O)Cc2ccon2)ccc1OCCN1CCCC1` [Compound 262, N-(3-(4,6-dimethylpyrimidin-5-yl)-4-(2-(pyrrolidin-1-yl)ethoxy)phenyl)-2-(isoxazol-3-yl)acetamide] it is 35.7 nM; for `Cc1cc(CC(=O)Nc2ccc(OCCN3CCCC3)c(-c3c(C)ncnc3C)c2)on1` [Compound 264, N-(3-(4,6-dimethylpyrimidin-5-yl)-4-(2-(pyrrolidin-1-yl)ethoxy)phenyl)-2-(3-methylisoxazol-5-yl)acetamide] it is 9.18 nM. As for `Cc1noc(CC(=O)Nc2ccc(OCCN3CCCC3)c(-c3c(C)ncnc3C)c2)n1` [Compound 265, N-(3-(4,6-dimethylpyrimidin-5-yl)-4-(2-(pyrrolidin-1-yl)ethoxy)phenyl)-2-(3-methyl-1,2,4-oxadiazol-5-yl)acetamide], the figure is 18.2 nM; as for `Cc1ncnc(C)c1-c1cc(NC(=O)Cc2cc(C)n(C)n2)ccc1OCCN1CCCC1` [Compound 267, 2-(1,5-dimethyl-1H-pyrazol-3-yl)-N-(3-(4,6-dimethylpyrimidin-5-yl)-4-(2-(pyrrolidin-1-yl)ethoxy)phenyl)acetamide], 692 nM. Regarding `Cc1ncnc(C)c1-c1cc(NC(=O)Cc2ccn(C)n2)ccc1OCCN1CCCC1` [Compound 269, N-[3-(4,6-dimethylpyrimidin-5-yl)-4-(2-pyrrolidin-1-ylethoxy)phenyl]-2-(1-methylpyrazol-3-yl)acetamide], the inhibition constant (Ki) turned out to be 559 nM. Take `Cc1ncnc(C)c1-c1cc(NC(=O)CCc2ccn(C)n2)ccc1OCCN1CCCC1` [Compound 270, N-[3-(4,6-dimethylpyrimidin-5-yl)-4-(2-pyrrolidin-1-ylethoxy)phenyl]-3-(1-methylpyrazol-3-yl)propanamide]: the Ki was 51.6 nM.

As for `COc1cccc(CC(=O)Nc2ccc(OCCN3CCCC3)c(-c3c(C)ncnc3C)c2)c1` [Compound 274, N-(3-(4,6-dimethylpyrimidin-5-yl)-4-(2-(pyrrolidin-1-yl)ethoxy)phenyl)-2-(3-methoxyphenyl)acetamide], the inhibition constant Ki is 3.92 nM. For `Cc1ncnc(C)c1-c1cc(NC(=O)Cc2cncc(F)c2)ccc1OCCN1CCCC1` [Compound 277, N-(3-(4,6-dimethylpyrimidin-5-yl)-4-(2-(pyrrolidin-1-yl)ethoxy)phenyl)-2-(5-fluoropyridin-3-yl)acetamide], the Ki came to 33.4 nM. Regarding `Cc1ncnc(C)c1-c1cc(NC(=O)Cc2ccc(F)cn2)ccc1OCCN1CCCC1` [Compound 278, N-(3-(4,6-dimethylpyrimidin-5-yl)-4-(2-(pyrrolidin-1-yl)ethoxy)phenyl)-2-(5-fluoropyridin-2-yl)acetamide], the Ki was determined as 32.6 nM. Take `Cc1ncnc(C)c1-c1cc(N(C)C(=O)C2CC2)ccc1OCCN1CCCC1` [Compound 279, N-[3-(4,6-dimethylpyrimidin-5-yl)-4-(2-pyrrolidin-1-ylethoxy)phenyl]-N-methyl-cyclopropanecarboxamide]: the Ki came to 65800 nM.

Consider `Cc1ncnc(C)c1-c1cc(N(C)C(=O)c2ccnn2C)ccc1OCCN1CCCC1` [Compound 280, N-[3-(4,6-dimethylpyrimidin-5-yl)-4-(2-pyrrolidin-1-ylethoxy)phenyl]-N,2-dimethyl-pyrazole-3-carboxamide], for which the Ki was 65800 nM. Turning to `Cc1ncnc(C)c1-c1cc(NC(=O)CCF)ccc1OCCN1CCCC1` [Compound 281, N-[3-(4,6-dimethylpyrimidin-5-yl)-4-(2-pyrrolidin-1-ylethoxy)phenyl]-3-fluoro-propanamide], the Ki stood at 30.6 nM.

On to `Cc1ncnc(C)c1-c1cc(NC(=O)CCCF)ccc1OCCN1CCCC1` [Compound 282, N-[3-(4,6-dimethylpyrimidin-5-yl)-4-(2-pyrrolidin-1-ylethoxy)phenyl]-4-fluoro-butanamide], for which the Ki turned out to be 8.84 nM. For the compound `Cc1ncnc(C)c1-c1cc(NC(=O)C2(O)CC2)ccc1OCCN1CCCC1` [Compound 283, N-[3-(4,6-dimethylpyrimidin-5-yl)-4-(2-pyrrolidin-1-ylethoxy)phenyl]-1-hydroxy-cyclopropanecarboxamide], the Ki is 24 nM. For the compound `COC(C)(C)C(=O)Nc1ccc(OCCN2CCCC2)c(-c2c(C)ncnc2C)c1` [Compound 284, N-[3-(4,6-dimethylpyrimidin-5-yl)-4-(2-pyrrolidin-1-ylethoxy)phenyl]-2-methoxy-2-methyl-propanamide], the Ki was 87.5 nM. In the case of `CCOC1(C(=O)Nc2ccc(OCCN3CCCC3)c(-c3c(C)ncnc3C)c2)CC1` [Compound 285, N-[3-(4,6-dimethylpyrimidin-5-yl)-4-(2-pyrrolidin-1-ylethoxy)phenyl]-1-ethoxy-cyclopropanecarboxamide], the Ki was found to be 33.4 nM. On to `COC1(C(=O)Nc2ccc(OCCN3CCCC3)c(-c3c(C)ncnc3C)c2)CCC1` [Compound 286, N-[3-(4,6-dimethylpyrimidin-5-yl)-4-(2-pyrrolidin-1-ylethoxy)phenyl]-1-methoxy-cyclobutanecarboxamide], for which the Ki is 10.1 nM. Regarding `Cc1ncnc(C)c1-c1cc(NC(=O)CN2CCCC2)ccc1OCCN1CCCC1` [Compound 287, N-[3-(4,6-dimethylpyrimidin-5-yl)-4-(2-pyrrolidin-1-ylethoxy)phenyl]-2-pyrrolidin-1-yl-acetamide], the Ki was 3250 nM. In the case of `Cc1ncnc(C)c1-c1cc(NC(=O)CNC2CC2)ccc1OCCN1CCCC1` [Compound 288, 2-(Cyclopropylamino)-N-[3-(4,6-dimethylpyrimidin-5-yl)-4-(2-pyrrolidin-1-ylethoxy)phenyl]acetamide], the Ki worked out at 81.2 nM. For `Cc1ncnc(C)c1-c1cc(NC(=O)CNC2CCCC2)ccc1OCCN1CCCC1` [Compound 289, 2-(cyclopentylamino)-N-(3-(4,6-dimethylpyrimidin-5-yl)-4-(2-(pyrrolidin-1-yl)ethoxy)phenyl)acetamide], the Ki stood at 123 nM. The figure for `Cc1cnn(C)c1C(=O)Nc1ccc(OCCN2CCCC2)c(-c2c(C)ncnc2C)c1` [Compound 292, N-(3-(4,6-dimethylpyrimidin-5-yl)-4-(2-(pyrrolidin-1-yl)ethoxy)phenyl)-1,4-dimethyl-1H-pyrazole-5-carboxamide] is 17.6 nM; for `Cc1ncnc(C)c1-c1cc(NC(=O)Cc2nccs2)ccc1OCCN1CCCC1` [Compound 294, N-(3-(4,6-dimethylpyrimidin-5-yl)-4-(2-(pyrrolidin-1-yl)ethoxy)phenyl)-2-(thiazol-2-yl)acetamide] it is 17.9 nM. For the compound `Cc1ncnc(C)c1-c1cc(NC(=O)c2c(F)ccn2C)ccc1OCCN1CCCC1` [Compound 295, N-[3-(4,6-dimethylpyrimidin-5-yl)-4-(2-pyrrolidin-1-ylethoxy)phenyl]-3-fluoro-1-methyl-pyrrole-2-carboxamide], the Ki turned out to be 2.01 nM. On to `Cc1ncnc(C)c1-c1cc(NC(=O)C2CC(F)(F)C2)ccc1OCCN1CCCC1` [Compound 296, N-(3-(4,6-dimethylpyrimidin-5-yl)-4-(2-(pyrrolidin-1-yl)ethoxy)phenyl)-3,3-difluorocyclobutane-1-carboxamide], for which the Ki came out at 4.49 nM. As to `Cc1ncnc(C)c1-c1cc(NC(=O)c2cccc(F)c2)ccc1OCCN1CCCC1` [Compound 297, N-(3-(4,6-dimethylpyrimidin-5-yl)-4-(2-(pyrrolidin-1-yl)ethoxy)phenyl)-3-fluorobenzamide], the Ki was determined as 2.71 nM. Regarding `Cc1ncnc(C)c1-c1cc(NC(=O)c2ccccc2F)ccc1OCCN1CCCC1` [Compound 298, N-(3-(4,6-dimethylpyrimidin-5-yl)-4-(2-(pyrrolidin-1-yl)ethoxy)phenyl)-2-fluorobenzamide], the Ki was determined as 16.9 nM. The figure for `Cc1ccccc1C(=O)Nc1ccc(OCCN2CCCC2)c(-c2c(C)ncnc2C)c1` [Compound 299, N-(3-(4,6-dimethylpyrimidin-5-yl)-4-(2-(pyrrolidin-1-yl)ethoxy)phenyl)-2-methylbenzamide] is 20.6 nM; for `Cc1cccc(C(=O)Nc2ccc(OCCN3CCCC3)c(-c3c(C)ncnc3C)c2)c1` [Compound 300, N-(3-(4,6-dimethylpyrimidin-5-yl)-4-(2-(pyrrolidin-1-yl)ethoxy)phenyl)-3-methylbenzamide] it is 1.48 nM.

Turning to `Cc1ccc(C(=O)Nc2ccc(OCCN3CCCC3)c(-c3c(C)ncnc3C)c2)cc1` [Compound 301, N-(3-(4,6-dimethylpyrimidin-5-yl)-4-(2-(pyrrolidin-1-yl)ethoxy)phenyl)-4-methylbenzamide], the Ki amounted to 3.4 nM.
